From PMC12689286, “Enhanced therapeutics of cabazitaxel via polycarboxylate conjugation: improved solubility, safety, and antitumor efficacy” (Frontiers in Immunology, 2025)

Experiments:
[1] = MCF-7 xenograft model, survival; type: in vivo, BALB/c nude mice; settings: MCF-7 model, 9.6 μmol/kg, n=6
Protocol: (§1) All animal experiments were conducted in accordance with protocols approved by the Institutional Animal Care and Use Committee of Peking Union Medical College. Male BALB/c nude mice (6–8 weeks old) and female KM mice (6–8 weeks old) were purchased from Charles River Laboratories (Beijing, China) and maintained under specific pathogen-free conditions.
(§2) MCF-7 Breast Cancer Model: Female BALB/c nude mice bearing MCF-7 xenografts (2×10^6 cells/mouse) were randomized into treatment groups as described above, with an adjusted dose of 9.6 μmol/kg for all CTX formulations.

[2] = DU145 xenograft model, body weight; type: in vivo, BALB/c nude mice; settings: 3 μmol/kg, by day 7
Protocol: as §1
DU145 Prostate cancer model: DU145 cells (3×10^6 cells/mouse) were subcutaneously inoculated into the right flank of BALB/c nude mic. When tumors reached approximately 100 mm³, mice were randomly divided into four treatment groups (n=6/group): (a) Vehicle control; (b) CTX (3 μmol/kg); (c) CTX-TTHA (3 μmol/kg); (d) CTX-DTPA (3 μmol/kg). Treatments were administered via tail vein injection three times at 3-day intervals. Major organs were collected for histopathological examination after the final administration.

A549 = assay: MTS cytotoxicity, A549; type: cell-based; settings: Homo sapiens
Protocol: (§3) Human cancer cell lines were cultured in basic medium (10% fetal bovine serum (FBS)+1% double antibody solution) (Biological Industries) at 37°C in a 5% CO2 incubator. Effects of CTXs on cell proliferation and viability were measured by an MTS (Promega Corporation) assay. Absorbance values at 490 nm were measured using a microplate reader (Thermo Scientific, Varioskan Flash) ([22]).

HCT 116 = assay: MTS cytotoxicity, HCT 116; type: cell-based; settings: Homo sapiens; HCT 116, MTS
Protocol: as §3

thymus = assay: Thymic toxicity in H22 tumor-bearing mice (thymus weight, thymocyte apoptosis); type: in vivo, KM mice
Protocol: (§4) H22 hepatoma model: Female KM mice were subcutaneously implanted with H22 cells (2×10^6 cells/mouse) and assigned to six groups: (a) Vehicle control; (b) CTX (9.6 μmol/kg in 5% glucose with 2.5% ethanol/2.5% Tween 80); (c) CTX-TTHA (9.6 μmol/kg in saline); (d) CTX-DTPA (9.6 μmol/kg in saline); (e) CTX-TTHA (19.1 μmol/kg in saline); (f) CTX-DTPA (19.1 μmol/kg in saline).
Gently mix 1×10^6 thymocytes with FITC Anexin V (5 μl) and PI (10 μl), and incubate in the dark for 15 minutes, RT. Analyze by flow cytometry. Thymocytes were stained with anti-mouse CD3e cyanine 5.5 (eBioscience, 85-45-0031-82), anti-CD4 PE (eBioscience, 85-12-0042-82), anti-CD8a FITC (4°C 30 min) and detected by flow cytometry.

[3] = test system: H22 hepatocellular carcinoma tumors; assay: H22 hepatoma model, tumor growth inhibition; type: in vivo, KM mice; settings: every other day
Protocol: as §4
(§5) Treatments were administered every other day for four doses (three doses for CTX group due to weight loss >15%). Peripheral blood samples were collected for complete blood count analysis using an automated hematology analyzer.

H460 = assay: MTS cytotoxicity, H460; type: cell-based; settings: Homo sapiens, NCI-H460
Protocol: as §3

[4] = Lipid-aqueous (octanol/water) partition coefficient; type: physicochemical; settings: room temperature
Protocol: CTXs were dissolved in octanol, and an equal volume of water was added, followed by shaken at 100 rpm for 24 h at room temperature. The upper octanol phase and lower water phase were separated by centrifugation. The supernatant was analyzed by HPLC (Bruker SolanX 70 FT-MS; Agilent 6540TOF) ([21]).

Bel-7402 = assay: MTS cytotoxicity, Bel-7402; type: cell-based; settings: Homo sapiens; Bel-7402, MTS
Protocol: as §3

[5] = Systemic toxicity in H22 tumor-bearing mice (body weight, blood count); type: in vivo, KM mice
Protocol: as §4, §5

MCF-7 xenografts = assay: MCF-7 breast cancer xenograft, tumor volume; type: in vivo, BALB/c nude mice; settings: MCF-7 xenograft, 9.6 μmol/kg
Protocol: as §1, §2

[6] = test system: rat red blood cells (RBCs); assay: Hemolysis test; type: cell-based, SD rats; settings: vs unmodified CTX
Protocol: The hemolytic potential of CTX formulations was evaluated using rat red blood cells (RBCs). Briefly, whole blood was collected from the abdominal aorta of anesthetized SD rats into ACD anticoagulant (blood:ACD = 1:4, v/v). The blood was diluted with normal saline (4:5, v/v) and centrifuged at 450 g for 10 min. The RBC pellet was washed three times with normal saline until the supernatant was clear. The washed RBCs were then resuspended in normal saline to prepare a 2% (v/v) suspension.
For the assay, 500 μL of the 2% RBC suspension was mixed with an equal volume of serially diluted drugs or controls in 1.5 mL tubes. The controls included: Negative control (0% hemolysis): normal saline. Positive control (100% hemolysis): distilled water. Solvent control: the vehicle for unmodified CTX (2.5% Tween 80 + 2.5% anhydrous ethanol + 95% normal saline). The mixtures were incubated at 37 °C for 1.5 h and then centrifuged at 450 g for 5 min. Subsequently, 150 μL of the supernatant from each tube was transferred to a 96-well plate, and the absorbance at 545 nm (OD545) was measured using a microplate reader. The percentage of hemolysis was calculated using the following formula: Hemolysis (%) = [(ODsample - ODnegative control)/(ODpositive control - ODnegative control)] × 100.

tubulin = molecular target: T1, tubulin (Sus scrofa, UniProt P02554); assay: Purified tubulin polymerization; type: biochemical; settings: purified tubulin 3 mg/ml, 37°C
T1 construct: purchased Cytoskeleton BK006P
Protocol: A tubulin polymerization assay kit (Cytoskeleton, BK006P) was used. Briefly, 10 μl of CTXs with a concentration of 100 μM in the general tubulin buffer and 100 μl of tubulin (3 mg/ml) in TP buffer were added on ice. The 96-well plate was immediately placed in a microplate reader at 37°C.

T1 sequence (P02554 whole entry): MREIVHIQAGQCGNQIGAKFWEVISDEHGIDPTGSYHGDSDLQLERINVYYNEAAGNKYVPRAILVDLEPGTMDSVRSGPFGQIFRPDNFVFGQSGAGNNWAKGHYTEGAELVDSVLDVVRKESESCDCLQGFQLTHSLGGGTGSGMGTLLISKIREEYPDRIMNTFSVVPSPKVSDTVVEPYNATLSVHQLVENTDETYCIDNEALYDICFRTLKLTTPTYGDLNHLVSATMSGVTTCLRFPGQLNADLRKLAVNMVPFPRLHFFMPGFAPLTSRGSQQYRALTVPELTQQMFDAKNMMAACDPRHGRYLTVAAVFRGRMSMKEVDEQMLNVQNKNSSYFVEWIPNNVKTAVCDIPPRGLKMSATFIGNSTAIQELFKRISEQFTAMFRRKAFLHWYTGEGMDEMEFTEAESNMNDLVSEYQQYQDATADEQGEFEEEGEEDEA
T1 sequence (P02550 whole entry partner): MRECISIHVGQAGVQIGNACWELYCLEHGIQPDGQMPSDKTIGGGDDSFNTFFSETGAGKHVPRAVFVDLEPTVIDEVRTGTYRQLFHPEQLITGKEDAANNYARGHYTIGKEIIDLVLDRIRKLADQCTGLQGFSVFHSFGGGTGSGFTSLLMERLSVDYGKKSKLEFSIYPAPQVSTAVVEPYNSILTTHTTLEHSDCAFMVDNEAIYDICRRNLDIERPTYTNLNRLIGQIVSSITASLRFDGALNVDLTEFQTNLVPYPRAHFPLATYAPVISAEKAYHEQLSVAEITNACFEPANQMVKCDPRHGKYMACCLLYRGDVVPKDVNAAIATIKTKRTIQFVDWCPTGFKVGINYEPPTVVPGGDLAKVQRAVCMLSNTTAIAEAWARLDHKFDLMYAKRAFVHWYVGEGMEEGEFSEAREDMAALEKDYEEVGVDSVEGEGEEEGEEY

SMILES | survival [1] [%] | body weight loss [2] [%] | IC50 (A549) [nM] | IC50 (HCT 116) [nM] | thymic weight relative to normal (thymic atrophy) (thymus) | thymocyte apoptosis rate (thymus; Annexin V/PI flow cytometry) [%] | tumor growth inhibition ([3]; H22, 9.6 μmol/kg, three doses) [%] | IC50 (H460) [nM] | logP at 24 h [4] | IC50 (Bel-7402) [nM] | white blood cell count ([5]; H22 mice, day 7 post-treatment, controls 4.46 ± 1.19) | body weight loss ([5]; H22 tumor-bearing mice, 9.6 μmol/kg) | tumor volume at study endpoint (MCF-7 xenografts) [mm³] | improvement in hemocompatibility over unmodified CTX [6] [fold] | tumor growth inhibition ([3]; H22, high dose 19.1 μmol/kg in saline, four doses) [%] | WBC counts ([5]; H22 mice, throughout treatment, across all dose groups (9.6 and 19.1 μmol/kg)) | polymerization kinetics (tubulin) [mOD/min]
CO[C@H]1C(=O)[C@]2(C)[C@@H](OC)C[C@H]3OC[C@@]3(OC(C)=O)[C@H]2[C@H](OC(=O)c2ccccc2)[C@]2(O)C[C@H](OC(=O)[C@H](O)[C@@H](NC(=O)OC(C)(C)C)c3ccccc3)C(C)=C1C2(C)C [CTX, Cabazitaxel] | 83.3 | > 15 | 2.5 ± 1.2 | 2.2 ± 1.1 | 31 % of normal weight | 66.8 | 30.8 | 2.4 ± 1.3 | 4.55 ± 0.1 | 2.8 ± 0.5 | 1.55 ± 0.17 ×10^9/L | 11-16% | 56 ± 12 | – | – | – | –
COC1C(=O)C2(C)C(OC)CC3OCC3(OC(C)=O)C2C(OC(=O)c2ccccc2)C2(O)CC(OC(=O)C(OC(=O)CN(CCN(CCN(CC(=O)O)CC(=O)O)CC(=O)O)CC(=O)O)C(NC(=O)OC(C)(C)C)c3ccccc3)C(C)=C1C2(C)C (centres unmarked) [CTX-DTPA] | – | – | 3 ± 1.1 | 3.7 ± 1 | – | – | – | 2.4 ± 1.1 | 0.49 ± 0.12 | 2.9 ± 0.9 | – | – | 111 ± 18 | 64 | 80.5 | 3.50-5.60 ×10^9/L | 43.7 ± 8.0
